Measurements taken from patent US7192906B2, “Substituted pyrazole derivatives, production process thereof, and herbicide compositions containing the derivatives” (SDS Biotech K.K., priority 2001, dated 2007).

Key:
Format in all cases: in vivo
soybean (Glycine max) [1] = assay: Test Example 2 upland soil treatment, crop phytotoxicity; settings: Table 5, upland soil treatment, index 0-5
Procedure, shortened: (§1)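 Score 0–5 read at day 21 (5 = ≥90% effect or phytotoxicity, 0 = <10%). Wettable powder diluted in water to 1 kg a.i./ha, applied uniformly to upland soil one day after sowing; seeds covered with ~1 cm soil.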

[2] = system: wheat (Triticum aestivum); assay: as above; settings: Table 5, upland soil treatment, index 0-5
Procedure, shortened: as §1

Stellaria media [3] = assay: Test Example 2 upland soil treatment; settings: Table 5, upland soil treatment, index 0-5
Procedure, shortened: as §1

Chenopodium album [4] = assay: Test Example 2 upland soil treatment; settings: Table 5, upland soil treatment, index 0-5
Procedure, shortened: as §1

Digitaria adscendens [5] = assay: Test Example 2 upland soil treatment; settings: Table 5, upland soil treatment, index 0-5
Procedure, shortened: as §1

Setaria viridis [6] = assay: Test Example 2 upland soil treatment; settings: Table 5, upland soil treatment, index 0-5
Procedure, shortened: as §1

Rice (Oryza sativa) = assay: Test Example 3 paddy field treatment, crop phytotoxicity; settings: Table 6, paddy field treatment, transplanted rice, active ingredient 1 kg per hectare, 21st day after dropping, index 0-5
Procedure: (§2) A plastic pot of 130 cm^2 was filled with paddy soil, and soil puddling was carried out to adjust the submerged depth to 4 cm. Subsequently, seeds of Echinochloa crusgalli, Monochoria vaginalis, Ammannia multiflora and Scirpus juncoides were sowed, and rice (Oryza sative, variety: Koshihikari) of two-leaf period was transplanted by 2 rice plants of 1 stub per pot at a depth of 3 cm. On the 10th day after the transplantation, the wettable powder prepared in Formulation Example 1 was diluted with water such that the amount of the active ingredient became 1 kg per hectare, and then dropped to diffuse on the water surface. On the 21st day after the dropping, observation and evaluation were carried out according to the aforesaid criteria.
(§3) Herbicidal activity was evaluated based on the following criteria.
(§4) • 5: herbicidal effect of not less than 90%, or phytotoxicity of 90% or more • 4: herbicidal effect of not less than 70% and less than 90%, or phytotoxicity of 70% or more and less than 90% • 3: herbicidal effect of not less than 50% and less than 70%, or phytotoxicity of 50% or more and less than 70% • 2: herbicidal effect of not less than 30% and less than 50%, or phytotoxicity of 30% or more and less than 50% • 1: herbicidal effect of not less than 10% and less than 30%, or phytotoxicity of 10% or more and less than 30% • 0: herbicidal effect of not less than 0% and less than 10%, or phytotoxicity of 0% or more and less than 10%

Echinochloa crusgalli = assay: Test Example 3 paddy field treatment; settings: Table 6, paddy field treatment, active ingredient 1 kg per hectare, 21st day after dropping, index 0-5
Procedure: as §2, §3, §4

Ammannia multiflora = assay: Test Example 3 paddy field treatment; settings: Table 6, paddy field treatment, active ingredient 1 kg per hectare, 21st day after dropping, index 0-5
Procedure: as §2, §3, §4

Scirpus juncoides = assay: Test Example 3 paddy field treatment; settings: Table 6, paddy field treatment, active ingredient 1 kg per hectare, 21st day after dropping, index 0-5
Procedure: as §2, §3, §4

Monochoria vaginalis = assay: Test Example 3 paddy field treatment; settings: Table 6, paddy field treatment, active ingredient 1 kg per hectare, 21st day after dropping, index 0-5
Procedure: as §2, §3, §4

Stellaria media [7] = assay: Test Example 1 upland field foliage treatment; settings: Table 4, upland field foliage treatment, index 0-5
Procedure, shortened: (§5)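 Seeds sown in upland soil in pots and covered with about 1 cm soil; on day 14 after sowing, diluted wettable powder applied uniformly to leaves at 1 kg active ingredient per hectare. Weed control or crop phytotoxicity scored visually 21 days after application on a 0–5 scale (5 = ≥90%, 0 = <10%).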

Chenopodium album [8] = assay: Test Example 1 upland field foliage treatment; settings: Table 4, upland field foliage treatment, index 0-5
Procedure, shortened: as §5

Digitaria adscendens [9] = assay: Test Example 1 upland field foliage treatment; settings: Table 4, upland field foliage treatment, index 0-5
Procedure, shortened: as §5

Setaria viridis [10] = assay: Test Example 1 upland field foliage treatment; settings: Table 4, upland field foliage treatment, index 0-5
Procedure, shortened: as §5

soybean (Glycine max) [11] = assay: Test Example 1 upland field foliage treatment, crop phytotoxicity; settings: Table 4, upland field foliage treatment, index 0-5
Procedure, shortened: as §5

[12] = system: wheat (Triticum aestivum); assay: as above; settings: Table 4, upland field foliage treatment, index 0-5
Procedure, shortened: as §5

| SMILES | Herbicidal activity (phytotoxicity) GM: Soybean (Glycine max) (soybean (Glycine max) [1]) | Herbicidal activity (phytotoxicity) TA: Wheat (Triticum aestivum) [2] | Herbicidal activity SM: Stellaria media (Stellaria media [3]) | Herbicidal activity CA: Chenopodium album (Chenopodium album [4]) | Herbicidal activity DA: Digitaria adscendens (Digitaria adscendens [5]) | Herbicidal activity SV: Setaria viridis (Setaria viridis [6]) | Herbicidal activity (phytotoxicity) OS (Rice (Oryza sativa)) | Herbicidal activity EC (Echinochloa crusgalli) | Herbicidal activity AM (Ammannia multiflora) | Herbicidal activity SJ (Scirpus juncoides) | Herbicidal activity MV (Monochoria vaginalis) | Herbicidal activity SM: Stellaria media (Stellaria media [7]) | Herbicidal activity CA: Chenopodium album (Chenopodium album [8]) | Herbicidal activity DA: Digitaria adscendens (Digitaria adscendens [9]) | Herbicidal activity SV: Setaria viridis (Setaria viridis [10]) | Herbicidal activity (phytotoxicity) GM: Soybean (Glycine max) (soybean (Glycine max) [11]) | Herbicidal activity (phytotoxicity) TA: Wheat (Triticum aestivum) [12] |
| --- | --- | --- | --- | --- | --- | --- | --- | --- | --- | --- | --- | --- | --- | --- | --- | --- | --- |
| CNC(=O)C(Cn1cc(C)c(-c2cccc(F)c2F)n1)=NOC [Compound 55] | 0 (herbicidal effect of not less than 0% and less than 10%, or phytotoxicity of 0% or more and less than 10%) | 0 (herbicidal effect of not less than 0% and less than 10%, or phytotoxicity of 0% or more and less than 10%) | 5 (herbicidal effect of not less than 90%, or phytotoxicity of 90% or more) | 5 (herbicidal effect of not less than 90%, or phytotoxicity of 90% or more) | 5 (herbicidal effect of not less than 90%, or phytotoxicity of 90% or more) | 5 (herbicidal effect of not less than 90%, or phytotoxicity of 90% or more) | 0 (herbicidal effect of not less than 0% and less than 10%, or phytotoxicity of 0% or more and less than 10%) | 5 (herbicidal effect of not less than 90%, or phytotoxicity of 90% or more) | 5 (herbicidal effect of not less than 90%, or phytotoxicity of 90% or more) | 5 (herbicidal effect of not less than 90%, or phytotoxicity of 90% or more) | 5 (herbicidal effect of not less than 90%, or phytotoxicity of 90% or more) | – | – | – | – | – | – |
| CCN(CC)C(=O)C(Cn1cc(C)c(-c2ccccc2)n1)=NOC [Compound 94] | 0 (herbicidal effect of not less than 0% and less than 10%, or phytotoxicity of 0% or more and less than 10%) | 0 (herbicidal effect of not less than 0% and less than 10%, or phytotoxicity of 0% or more and less than 10%) | 4 (herbicidal effect of not less than 70% and less than 90%, or phytotoxicity of 70% or more and less than 90%) | 5 (herbicidal effect of not less than 90%, or phytotoxicity of 90% or more) | 3 (herbicidal effect of not less than 50% and less than 70%, or phytotoxicity of 50% or more and less than 70%) | 3 (herbicidal effect of not less than 50% and less than 70%, or phytotoxicity of 50% or more and less than 70%) | – | – | – | – | – | 5 (herbicidal effect of not less than 90%, or phytotoxicity of 90% or more) | 5 (herbicidal effect of not less than 90%, or phytotoxicity of 90% or more) | 3 (herbicidal effect of not less than 50% and less than 70%, or phytotoxicity of 50% or more and less than 70%) | 3 (herbicidal effect of not less than 50% and less than 70%, or phytotoxicity of 50% or more and less than 70%) | 0 (herbicidal effect of not less than 0% and less than 10%, or phytotoxicity of 0% or more and less than 10%) | 0 (herbicidal effect of not less than 0% and less than 10%, or phytotoxicity of 0% or more and less than 10%) |
| CNC(=O)C(Cn1cc(C)c(-c2ccccc2)n1)=NOCc1ccccc1 [Compound 106] | 0 (herbicidal effect of not less than 0% and less than 10%, or phytotoxicity of 0% or more and less than 10%) | 0 (herbicidal effect of not less than 0% and less than 10%, or phytotoxicity of 0% or more and less than 10%) | 4 (herbicidal effect of not less than 70% and less than 90%, or phytotoxicity of 70% or more and less than 90%) | 4 (herbicidal effect of not less than 70% and less than 90%, or phytotoxicity of 70% or more and less than 90%) | 4 (herbicidal effect of not less than 70% and less than 90%, or phytotoxicity of 70% or more and less than 90%) | 3 (herbicidal effect of not less than 50% and less than 70%, or phytotoxicity of 50% or more and less than 70%) | – | – | – | – | – | 3 (herbicidal effect of not less than 50% and less than 70%, or phytotoxicity of 50% or more and less than 70%) | 3 (herbicidal effect of not less than 50% and less than 70%, or phytotoxicity of 50% or more and less than 70%) | 3 (herbicidal effect of not less than 50% and less than 70%, or phytotoxicity of 50% or more and less than 70%) | 3 (herbicidal effect of not less than 50% and less than 70%, or phytotoxicity of 50% or more and less than 70%) | 0 (herbicidal effect of not less than 0% and less than 10%, or phytotoxicity of 0% or more and less than 10%) | 0 (herbicidal effect of not less than 0% and less than 10%, or phytotoxicity of 0% or more and less than 10%) |
| CON=C(Cn1cc(C)c(-c2ccccc2)n1)C(=O)NN(C)C [Compound 124] | 0 (herbicidal effect of not less than 0% and less than 10%, or phytotoxicity of 0% or more and less than 10%) | 0 (herbicidal effect of not less than 0% and less than 10%, or phytotoxicity of 0% or more and less than 10%) | 4 (herbicidal effect of not less than 70% and less than 90%, or phytotoxicity of 70% or more and less than 90%) | 5 (herbicidal effect of not less than 90%, or phytotoxicity of 90% or more) | 3 (herbicidal effect of not less than 50% and less than 70%, or phytotoxicity of 50% or more and less than 70%) | 3 (herbicidal effect of not less than 50% and less than 70%, or phytotoxicity of 50% or more and less than 70%) | – | – | – | – | – | 4 (herbicidal effect of not less than 70% and less than 90%, or phytotoxicity of 70% or more and less than 90%) | 4 (herbicidal effect of not less than 70% and less than 90%, or phytotoxicity of 70% or more and less than 90%) | 3 (herbicidal effect of not less than 50% and less than 70%, or phytotoxicity of 50% or more and less than 70%) | 3 (herbicidal effect of not less than 50% and less than 70%, or phytotoxicity of 50% or more and less than 70%) | 0 (herbicidal effect of not less than 0% and less than 10%, or phytotoxicity of 0% or more and less than 10%) | 0 (herbicidal effect of not less than 0% and less than 10%, or phytotoxicity of 0% or more and less than 10%) |
